Consider 28 compounds from patent US12435080B2, “sGC stimulators” (Tisento Therapeutics Inc., priority 2016, dated 2025).

Each structure is given as a SMILES string. “And” between values parts separate entries of the source, which are not always exact repeats. Equal values may be shown once.

For the experiment, the target named is T1, sGC enzyme (Homo sapiens, UniProt Q02108+Q02153).
T1 construct: incorporated into these cells detect cGMP formed by the compounds stimulating the sGC enzyme; host or cells: HEK293 cells stably expressing GloSensor 40F cGMP biosensor
T1 sequence (Q02153 1-619): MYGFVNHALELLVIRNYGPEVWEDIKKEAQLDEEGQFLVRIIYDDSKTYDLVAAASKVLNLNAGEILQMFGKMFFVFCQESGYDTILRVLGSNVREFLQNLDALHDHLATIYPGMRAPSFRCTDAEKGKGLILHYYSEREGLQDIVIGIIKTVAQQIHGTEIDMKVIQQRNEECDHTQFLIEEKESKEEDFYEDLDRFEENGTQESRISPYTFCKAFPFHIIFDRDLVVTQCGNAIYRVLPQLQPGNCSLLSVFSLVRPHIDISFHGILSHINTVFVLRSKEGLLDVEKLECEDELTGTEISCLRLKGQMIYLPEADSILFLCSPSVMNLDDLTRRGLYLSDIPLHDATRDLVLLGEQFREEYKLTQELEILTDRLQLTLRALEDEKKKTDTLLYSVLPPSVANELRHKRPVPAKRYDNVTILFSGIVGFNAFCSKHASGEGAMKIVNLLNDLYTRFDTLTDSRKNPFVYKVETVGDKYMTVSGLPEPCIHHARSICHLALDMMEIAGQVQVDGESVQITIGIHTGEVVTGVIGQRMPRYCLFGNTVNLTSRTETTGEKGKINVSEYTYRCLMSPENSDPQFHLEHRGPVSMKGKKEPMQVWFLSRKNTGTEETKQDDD
T1 sequence (Q02108 1-690): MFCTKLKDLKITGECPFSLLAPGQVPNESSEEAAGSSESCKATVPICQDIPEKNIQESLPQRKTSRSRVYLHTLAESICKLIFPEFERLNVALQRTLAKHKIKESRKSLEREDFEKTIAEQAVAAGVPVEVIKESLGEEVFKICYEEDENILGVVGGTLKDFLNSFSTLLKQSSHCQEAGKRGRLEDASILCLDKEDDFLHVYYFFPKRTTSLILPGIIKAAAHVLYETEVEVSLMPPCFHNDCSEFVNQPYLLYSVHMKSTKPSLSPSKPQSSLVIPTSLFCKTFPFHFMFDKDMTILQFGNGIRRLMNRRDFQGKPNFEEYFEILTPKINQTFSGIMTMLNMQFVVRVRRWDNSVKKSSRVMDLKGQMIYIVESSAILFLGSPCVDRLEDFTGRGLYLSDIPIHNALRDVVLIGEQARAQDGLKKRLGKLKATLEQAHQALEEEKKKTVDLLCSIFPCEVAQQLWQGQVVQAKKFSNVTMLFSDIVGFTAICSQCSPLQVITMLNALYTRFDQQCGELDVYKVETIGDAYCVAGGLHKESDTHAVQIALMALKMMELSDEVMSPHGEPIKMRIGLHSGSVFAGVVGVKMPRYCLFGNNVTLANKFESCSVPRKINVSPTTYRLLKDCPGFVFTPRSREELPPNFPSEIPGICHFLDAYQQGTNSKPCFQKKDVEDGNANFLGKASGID
The experiment can be described thus: cGMP GloSensor cell-based assay, 384-well format. The following applies: HEK293 cells expressing GloSensor 40F cGMP; 10 μM DETA-NONOate; normalized to 30 μM Compound Y; compounds in Table IA; read-out: Glo-sensor AbsEC50. The text has this:
Human embryonic kidney cells (HEK293) cells expressing GloSensor™ 40F cGMP (Part No: CS182801, Promega) were used to evaluate the activity of test compounds. The luminescent biosensors (engineered luciferase) that were incorporated into these cells detect cGMP formed by the compounds stimulating the sGC enzyme and emit luminescence.
cGMP GloSensor cells were maintained in Dulbecco's Modification of Eagle's Medium (DMEM) supplemented with fetal bovine serum (FBS, 10% final) and hygromycine (200 ug/ml). […] Cells were incubated overnight at 37° C. in a humidified chamber with 5% CO2. The next day, medium was removed and cells were replaced with 40 ul/well of GloSensor™, 2 mM (Promega Cat No E1291). Cells were treated for 90 minutes at 25° C. to allow the substrate to equilibrate in the cells. […] For endpoint SAR screening, data were collected after 55 min incubation at room temperature.
Data were fit using a 4-parameter fit (log(agonist) vs. response—variable slope) using GraphPad Prism Software v.5. n=2 for all compounds. […] Compounds failing to elicit a minimum response of 50% are reported as >30 μM or ND.
As to `CCC(=O)c1n[nH]c(-c2nn(Cc3ccccc3F)c3ncccc23)n1` [Compound I-66], the EC50 was greater than 1 µM.

For the compound `Fc1cccc(Cn2nc(-c3nc(C(F)F)n[nH]3)c3cccnc32)c1F` [Compound I-67, 1-(2,3-Difluorobenzyl)-3-(3-(difluoromethyl)-1H-1,2,4-triazol-5-yl)-1H-pyrazolo[3,4-b]pyridine], the EC50 was less than 0.1 µM. Next, `Fc1ccccc1Cn1nc(-c2nc(C3CC3)n[nH]2)c2cccnc21` [Compound I-68, 3-(3-Cyclopropyl-1H-1,2,4-triazol-5-yl)-1-(2-fluorobenzyl)-1H-pyrazolo[3,4-b]pyridine]: less than 0.1 µM; `Fc1ccccc1Cn1nc(-c2nc(CCCCl)n[nH]2)c2cccnc21` [Compound I-69, 3-(3-(3-chloropropyl)-1H-1,2,4-triazol-5-yl)-1-(2-fluorobenzyl)-1H-pyrazolo[3,4-b]pyridine]: 0.1 to 1 µM; `CC1(c2n[nH]c(-c3nn(Cc4ccccc4F)c4ncccc34)n2)COC1` [Compound I-70, 1-(2-fluorobenzyl)-3-(3-(3-methyloxetan-3-yl)-1H-1,2,4-triazol-5-yl)-1H-pyrazolo[3,4-b]pyridine]: 0.1 to 1 µM and > 1 µM. With `Fc1ccccc1Cn1nc(-c2nc(C3CNC3)n[nH]2)c2cccnc21` [Compound I-73, 3-(3-(azetidin-3-yl)-1H-1,2,4-triazol-5-yl)-1-(2-fluorobenzyl)-1H-pyrazolo[3,4-b]pyridine], the EC50 is > 1 µM and < 0.1 µM. As to `CN(C)C(=O)c1n[nH]c(-c2nn(Cc3ccccc3F)c3ncccc23)n1` [Compound I-74, 5-(1-(2-fluorobenzyl)-1H-pyrazolo[3,4-b]pyridin-3-yl)-N,N-dimethyl-1H-1,2,4-triazole-3-carboxamide], the EC50 lay in the range of 0.1 to 1 µM. With `O=C(N1CC(c2n[nH]c(-c3nn(Cc4ccccc4F)c4ncccc34)n2)C1)C(F)(F)F` [Compound I-75], the EC50 lay within 0.1 to 1 µM.

In the case of `CC(C)(C)OC(=O)NC1(c2n[nH]c(-c3nn(Cc4ccccc4F)c4ncccc34)n2)COC1` [Compound I-76, tert-Butyl (3-(5-(1-(2-fluorobenzyl)-1H-pyrazolo[3,4-b]pyridin-3-yl)-1H-1,2,4-triazol-3-yl)oxetan-3-yl)carbamate], the EC50 was in the range of 0.1 to 1 µM. As for `Fc1ccccc1Cn1nc(-c2nc(C3CC(F)(F)C3)n[nH]2)c2cccnc21` [Compound I-77, 3-(3-(3,3-Difluorocyclobutyl)-1H-1,2,4-triazol-5-yl)-1-(2-fluorobenzyl)-1H-pyrazolo[3,4-b]pyridine], the EC50 lay within 0.1 to 1 µM. As to `Fc1ccccc1Cn1nc(-c2nc(C3CCOCC3)n[nH]2)c2cccnc21` [Compound I-78, 1-(2-Fluorobenzyl)-3-(3-(tetrahydro-2H-pyran-4-yl)-1H-1,2,4-triazol-5-yl)-1H-pyrazolo[3,4-b]pyridine], the EC50 was greater than 1 µM. `NC1(c2n[nH]c(-c3nn(Cc4ccccc4F)c4ncccc34)n2)COC1` [Compound I-79, 3-(5-(1-(2-fluorobenzyl)-1H-pyrazolo[3,4-b]pyridin-3-yl)-1H-1,2,4-triazol-3-yl)oxetan-3-amine]: the EC50 is greater than 1 µM.

For `Fc1ccccc1Cn1nc(-c2nc(C3(c4ccccc4)CC3)n[nH]2)c2cccnc21` [Compound I-81, 1-(2-Fluorobenzyl)-3-(3-(1-phenylcyclopropyl)-1H-1,2,4-triazol-5-yl)-1H-pyrazolo[3,4-b]pyridine], the EC50 was greater than 1 µM. Regarding `COc1n[nH]c(-c2nn(Cc3ccccc3F)c3ncccc23)n1` [Compound I-82, 1-(2-fluorobenzyl)-3-(3-methoxy-1H-1,2,4-triazol-5-yl)-1H-pyrazolo[3,4-b]pyridine], the EC50 fell in the range of 0.1 to 1 µM. Regarding `Fc1ccccc1Cn1nc(-c2nc(OCC(F)(F)F)n[nH]2)c2cccnc21` [Compound I-83, 1-(2-Fluorobenzyl)-3-(3-(2,2,2-trifluoroethoxy)-1H-1,2,4-triazol-5-yl)-1H-pyrazolo[3,4-b]pyridine], the EC50 was greater than 1 µM. As for `Nc1n[nH]c(-c2nn(Cc3ccccc3F)c3ncccc23)n1` [Compound I-84, 5-(1-(2-fluorobenzyl)-1H-pyrazolo[3,4-b]pyridin-3-yl)-1H-1,2,4-triazol-3-amine], the EC50 was in the range of 0.1 to 1 µM.

As to `Cc1ccc2c(-c3nc(C(F)(F)F)n[nH]3)nn(Cc3cccc(F)c3F)c2n1` [Compound I-85, 1-(2,3-Difluorobenzyl)-6-methyl-3-(3-(trifluoromethyl)-1H-1,2,4-triazol-5-yl)-1H-pyrazolo[3,4-b]pyridine], the EC50 is less than 0.1 µM. Next, `CC1(c2n[nH]c(-c3nn(Cc4ccccc4F)c4ncccc34)n2)CC1(F)F` (stereo not shown) [Compound I-87, 3-(3-(2,2-Difluoro-1-methylcyclopropyl)-1H-1,2,4-triazol-5-yl)-1-(2-fluorobenzyl)-1H-pyrazolo[3,4-b]pyridine]: 0.1 to 1 µM; `Fc1ccccc1Cn1nc(-c2nc(N3CC(F)(F)C3)n[nH]2)c2cccnc21` [Compound I-88, 3-(3-(3,3-difluoroazetidin-1-yl)-1H-1,2,4-triazol-5-yl)-1-(2-fluorobenzyl)-1H-pyrazolo[3,4-b]pyridine]: greater than 1 µM; `Fc1ccccc1Cn1nc(-c2nc(NCCC(F)(F)F)n[nH]2)c2cccnc21` [Compound I-89]: less than 0.1 µM. On to `CN(C)c1n[nH]c(-c2nn(Cc3ccccc3F)c3ncccc23)n1` [Compound I-90], for which the EC50 lay in the range of 0.1 to 1 µM. The figure for `[2H]C([2H])([2H])c1n[nH]c(-c2nn(Cc3ccccc3F)c3ncccc23)n1` [Compound I-91, 1-(2-Fluorobenzyl)-3-(3-(methyl-d3)-1H-1,2,4-triazol-5-yl)-1H-pyrazolo[3,4-b]pyridine] is less than 0.1 µM; for `CC(C)(O)c1n[nH]c(-c2nn(Cc3ccccc3F)c3ncccc23)n1` [Compound I-94, 2-(5-(1-(2-fluorobenzyl)-1H-pyrazolo[3,4-b]pyridin-3-yl)-1H-1,2,4-triazol-3-yl)propan-2-ol] it is 0.1 to 1 µM; for `Fc1ccccc1Cn1nc(-c2nc(C3CN(CC(F)(F)F)C3)n[nH]2)c2cccnc21` [Compound I-95, 1-(2-Fluorobenzyl)-3-(3-(1-(2,2,2-trifluoroethyl)azetidin-3-yl)-1H-1,2,4-triazol-5-yl)-1H-pyrazolo[3,4-b]pyridine] it is 0.1 to 1 µM. In the case of `FCCN1CC(c2n[nH]c(-c3nn(Cc4ccccc4F)c4ncccc34)n2)C1` [Compound I-97, 1-(2-Fluorobenzyl)-3-(3-(1-(2-fluoroethyl)azetidin-3-yl)-1H-1,2,4-triazol-5-yl)-1H-pyrazolo[3,4-b]pyridine], the EC50 fell in the range of 0.1 to 1 µM. Next, `Fc1ccccc1Cn1nc(-c2nc(C(F)(F)F)n[nH]2)c2nccnc21` [Compound I-98, 1-(2-Fluorobenzyl)-3-(3-(trifluoromethyl)-1H-1,2,4-triazol-5-yl)-1H-pyrazolo[3,4-b]pyrazine]: greater than 1 µM. Next, `Fc1ccccc1Cn1nc(-c2nc(Cn3ccnc3)n[nH]2)c2cccnc21` [Compound I-99, 3-(3-((1H-imidazol-1-yl)methyl)-1H-1,2,4-triazol-5-yl)-1-(2-fluorobenzyl)-1H-pyrazolo[3,4-b]pyridine]: 0.1 to 1 µM; `Fc1ccccc1Cn1nc(-c2nc(C(F)(F)F)n[nH]2)c2ccnnc21` [Compound I-100, 1-(2-Fluorobenzyl)-3-(3-(trifluoromethyl)-1H-1,2,4-triazol-5-yl)-1H-pyrazolo[3,4-c]pyridazine]: 0.1 to 1 µM.
